Results as given in PMC9785492 (Viruses, 2022).
Read-outs that look alike come from different tables or passages of the source.

What was measured:
[1] = tested on: influenza A virus (A/Puerto Rico/8/34); details: for IC50: read-out: IC50, Inhibition of A/Puerto Rico/8/34 Infection, MDCK cells, 100 TCID50, MTT-based, 48 h post-infection
Cytotoxicity MTT assay = details: dog, MDCK cells
[2] = tested on: influenza A virus (A/Puerto Rico/8/34); assay: microbe, parasite or virus in culture; details: MDCK, read-out: IC50, Inhibition of A/Puerto Rico/8/34 Infection
in vitro = details: dog
[3] = tested on: caveolin-mediated endocytosis in A549 cells; format: cell-based, human
[4] = tested on: H5N1 pseudovirus A/Xinjiang/1/2006; assay: organism not typed; format: cell-based, H5N1 IAV
[5] = tested on: H5N1 pseudovirus A/Qinghai/59/2005; assay: organism not typed; format: cell-based, H5N1 IAV
A/Aichi/2/68 (H3N2) = assay: microbe, parasite or virus in culture; format: cell-based; details: Influenza A virus, H3N2, MDCK
A/WSN/33 (H1N1) = assay: microbe, parasite or virus in culture; format: cell-based, Influenza A virus (H1N1); details: Influenza A virus, MDCK
[6] = tested on: vesicular stomatitis virus G (VSV-G) PsV; format: cell-based
[7] = tested on: IAV-induced Ca2+ influx in A549 cells; assay: Intracellular Ca2+ level during IAV infection (BBcellProbeTMF3); format: cell-based, human; details: A/WSN/33
[8] = tested on: H5N1 pseudovirus A/Anhui/1/2005; assay: organism not typed; format: cell-based, H5N1 IAV
[9] = tested on: IAV proteins NP and PB2, NP mRNA; format: cell-based; details: MDCK cells
[10] = tested on: clathrin-associated uptake of transferrin in A549 cells; assay: Transferrin absorption test; details: pretreated 3 h, transferrin 15 µg/mL 30 min, Western blotting
[11] = tested on: H5N1 pseudovirus A/Hong Kong/156/1997; assay: organism not typed; format: cell-based, H5N1 IAV
[12] = tested on: clathrin-mediated endocytosis in A549 cells; assay: Fluorescence confocal assay, Tf-568 uptake; format: cell-based, human; details: 20 μM, 3 h pre-treatment
caveolin-1 = format: cell-based, human
[13] = tested on: IAV replication in A549 cells; format: cell-based; details: viral protein and gene
[14] = tested on: influenza viral polymerase activity; format: cell-based, Influenza A virus
A/FM-1/1/47 (H1N1) = assay: microbe, parasite or virus in culture; format: cell-based; details: Influenza A virus, H1N1, MDCK

CCOC(=O)C1=C(C)NC(C)=C(C(=O)OC)C1c1cccc([N+](=O)[O-])c1 (centres unmarked) [Nitrendipine]
SI (CC50/ IC50) [1]: 23.56
IC50 [1]: 7.26 ± 1.89 µM
CC50 at 48 h (Cytotoxicity MTT assay): 171 ± 14.1 µM

CC(=O)N[C@H]1[C@H]([C@H](O)[C@H](O)CO)OC(C(=O)O)=C[C@@H]1N=C(N)N [Zanamivir]
SI (CC50/ IC50) [1]: >158.73
CC50 at 48 h (Cytotoxicity MTT assay): > 0.2 µM
IC50 [2]: 0.00126 ± 0.0003 µM

COCCOC(=O)C1=C(C)NC(C)=C(C(=O)OC/C=C/c2ccccc2)C1c1cccc([N+](=O)[O-])c1 (centres unmarked) [Cilnidipine]
SI (CC50/ IC50) ([1]; A/Puerto Rico/8/34): >14.02
CC50 at 48 h (in vitro): > 200 µM
IC50 ([2]; 48 h): 14.3 ± 2.66 µM

methyl-β-cyclodextrin [MβCD]
CTB-FITC endocytosis (immunostaining) [3]: less immunostaining

COC(=O)C1=C(C)NC(C)=C(C(=O)OCC(C)C)C1c1ccccc1[N+](=O)[O-] (centres unmarked) [Nisoldipine]
IC50 [1]: 4.74 ± 0.76 µM
IC50 [4]: 3.87 ± 0.51 µM
IC50 [5]: 5.84 ± 0.64 µM
CC50 at 48 h (Cytotoxicity MTT assay): > 200 µM
IC50 (A/Aichi/2/68 (H3N2)): 5.68 ± 0.61 µM
IC50 (A/WSN/33 (H1N1)): 4.47 ± 0.25 µM
inhibition of VSV-G PsV infection [6]: much less efficiency
IAV-induced Ca2+ influx [7]: inhibited
IC50 [8]: 2.59 ± 0.46 µM
expression of IAV proteins NP and PB2 ([9]; Western blotting, dose-dependent): significantly inhibited
NP mRNA expression ([9]; qRT-PCR): decreased
internalization of transferrin [10]: markedly reduced
IC50 [11]: 4.47 ± 0.47 µM
transferrin (Tf-568) uptake [12]: decreased
CTB-FITC endocytosis (immunostaining) [3]: less immunostaining
expression of caveolin-1 (caveolin-1): reduce the expression of caveolin-1
IAV replication in A549 cells [13]: interfered with IAV replication
influenza viral polymerase activity [14]: did not affect
IC50 (A/FM-1/1/47 (H1N1)): 6.96 ± 0.78 µM

COCCOC(=O)C1=C(C)NC(C)=C(C(=O)OC(C)C)C1c1cccc([N+](=O)[O-])c1 (centres unmarked) [Nimodipine]
SI (CC50/ IC50) [1]: >15.58
IC50 [1]: 12.8 ± 1.72 µM
CC50 at 48 h (Cytotoxicity MTT assay): > 200 µM
